In this experiment the target is T1, Human KLK1 (Homo sapiens, UniProt P06870).
T1 construct: purchased Callbiochem (Calbiochem)
Briefly: Determination of the IC50 for KLK1 (fluorogenic substrate H-DVal-Leu-Arg-AFC). It counts as biochemical. As to conditions: 37° C. The protocol: Determination of the IC50 for KLK1
KLK1 inhibitory activity in vitro was determined using standard published methods (see e.g. Johansen et al., Int. J. Tiss. Reac. 1986, 8, 185; Shori et al., Biochem. Pharmacol., 1992, 43, 1209; Stürzebecher et al., Biol. Chem. Hoppe-Seyler, 1992, 373, 1025). Human KLK1 (Callbiochem) was incubated at 37° C. with the fluorogenic substrate H-DVal-Leu-Arg-AFC and various concentrations of the test compound. Residual enzyme activity (initial rate of reaction) was determined by measuring the change in optical absorbance at 410 nm and the IC50 value for the test compound was determined.

The structures appear in SMILES notation.

T1 sequence (P06870 25-262): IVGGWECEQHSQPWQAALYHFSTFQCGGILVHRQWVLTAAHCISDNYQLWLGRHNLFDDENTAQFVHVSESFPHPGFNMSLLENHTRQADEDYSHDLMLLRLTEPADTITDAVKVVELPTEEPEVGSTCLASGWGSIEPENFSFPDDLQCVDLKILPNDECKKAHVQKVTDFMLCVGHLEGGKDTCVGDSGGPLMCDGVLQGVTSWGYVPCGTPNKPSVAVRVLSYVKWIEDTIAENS

For the compound `Cc1nc(N)ccc1CNC(=O)[C@H](CC1CCCC2CCCCC21)NC(=O)[C@H](N)C(C)C` (stereo partly drawn) [Example 186, (R)-2-Amino-N-[(S)-1-[(6-amino-2-methyl-pyridin-3-ylmethyl)-carbamoyl]-2-(decahydro-naphthalen-1-yl)-ethyl]-3-methyl-butyramide], the IC50 stood at 0.81 nM.
In the case of `CCN(CC)[C@@H](C)C(=O)N[C@@H](Cc1ccc(F)cc1)C(=O)NCc1ccc(N)nc1` [Example 376, (S)—N-[(S)-1-[(6-Amino-pyridin-3-ylmethyl)-carbamoyl]-2-(4-fluoro-phenyl)-ethyl]-2-diethylamino-propionamide] it was 2.7 nM.
As for `NCC(=O)N[C@@H](CC1CCCC2CCCCC21)C(=O)NCc1ccc(N)nc1` (stereo partly drawn) [Example 17, (S)-2-(2-Amino-acetylamino)-N-(6-amino-pyridin-3-ylmethyl)-3-(decahydro-naphthalen-1-yl)-propionamide], half-maximal inhibition (IC50) required 211 nM.
For the compound `CCC(C)[C@@H](C(=O)N[C@@H](Cc1ccc(F)cc1)C(=O)NCc1ccc(N)nc1)N(C)C(C)C` (stereo partly drawn) [Example 371, (S)-2-(Isopropyl-methyl-amino)-3-methyl-pentanoic acid [(S)-1-[(6-amino-pyridin-3-ylmethyl)-carbamoyl]-2-(4-fluoro-phenyl)-ethyl]-amide], the half-maximal inhibitory concentration (IC50) was determined as 7.3 nM.
In the case of `Cc1ccccc1C[C@H](NC(=O)[C@H]1CCCN1C(C)C)C(=O)NCc1ccc(N)nc1` [Example 121, (R)-1-Isopropyl-pyrrolidine-2-carboxylic acid {(S)-1-[(6-amino-pyridin-3-ylmethyl)-carbamoyl]-2-o-tolyl-ethyl}-amide], half-maximal inhibition (IC50) was put at 11 nM.
`CCC(C)[C@@H](NC)C(=O)N[C@@H](Cc1ccc(Cl)cc1)C(=O)NCc1ccc(N)nc1` (stereo partly drawn) [Example 46, (R)-3-Methyl-2-methylamino-pentanoic acid [(S)-1-[(6-amino-pyridin-3-ylmethyl)-carbamoyl]-2-(4-chloro-phenyl)-ethyl]-amide] registered an IC50 of 1.2 nM.
Turning to `CCC(C)[C@@H](NC)C(=O)N[C@@H](Cc1cc(F)c(F)cc1F)C(=O)NCc1ccc(N)nc1` (stereo partly drawn) [Example 48, (R)-3-Methyl-2-methylamino-pentanoic acid [(S)-1-[(6-amino-pyridin-3-ylmethyl)-carbamoyl]-2-(2,4,5-trifluoro-phenyl)-ethyl]-amide], half-maximal inhibition (IC50) required 8 nM.
In the case of `CN[C@@H](Cc1ccccc1)C(=O)N[C@H](Cc1ccc(Cl)c(Cl)c1)C(=O)NCc1ccc(N)nc1C` [Example 193, (S)—N-[(R)-1-[(6-Amino-2-methyl-pyridin-3-ylmethyl)-carbamoyl]-2-(3,4-dichloro-phenyl)-ethyl]-2-methylamino-3-phenyl-propionamide] it was 10.9 nM; in that of `CN1CCC[C@@H]1C(=O)N[C@@H](Cc1ccccc1Cl)C(=O)NCc1ccc(N)nc1` [Example 109, (R)-1-Methyl-pyrrolidine-2-carboxylic acid [(S)-1-[(6-amino-pyridin-3-ylmethyl)-carbamoyl]-2-(2-chloro-phenyl)-ethyl]-amide], 21.7 nM.
The figure for `CC(C)[C@@H](N)C(=O)N[C@@H](Cc1cccc2ccccc12)C(=O)NCc1ccc(N)nc1` [Example 22, (R)-2-Amino-N-{(S)-1-[(6-amino-pyridin-3-ylmethyl)-carbamoyl]-2-naphthalen-1-yl-ethyl}-3-methyl-butyramide] is 2.2 nM; for `CN1CCC[C@@H]1C(=O)N[C@@H](CC1CCCC2CCCCC21)C(=O)NCc1ccc(N)nc1` (stereo partly drawn) [Example 396, (R)-1-Methyl-pyrrolidine-2-carboxylic acid [(S)-1-[(6-amino-pyridin-3-ylmethyl)-carbamoyl]-2-(decahydro-naphthalen-1-yl)-ethyl]-amide] it is 1.4 nM; for `CN(C)[C@@H](CO)C(=O)N[C@@H](CC1CCCCC1)C(=O)NCc1ccc(N)nc1` [Example 386, (S)—N-{(S)-1-[(6-Amino-pyridin-3-ylmethyl)-carbamoyl]-2-cyclohexyl-ethyl}-2-dimethylamino-3-hydroxy-propionamide] it is 260 nM.
Compound `Cc1cc(C)c(C(=O)N[C@@H](Cc2cccc3ccccc23)C(=O)NCc2ccc(N)nc2C)[nH]1` [Example 278, 3,5-Dimethyl-1H-pyrrole-2-carboxylic acid {(S)-1-[(6-amino-2-methyl-pyridin-3-ylmethyl)-carbamoyl]-2-naphthalen-1-yl-ethyl}-amide] came in with a half-maximal inhibitory concentration (IC50) of 3.2 nM.
In the case of `CN1Cc2ccccc2C[C@@H]1C(=O)N[C@@H](Cc1ccc(F)c(F)c1)C(=O)NCc1ccc(N)nc1` [Example 149, (R)-2-Methyl-1,2,3,4-tetrahydro-isoquinoline-3-carboxylic acid [(S)-1-[(6-amino-pyridin-3-ylmethyl)-carbamoyl]-2-(3,4-difluoro-phenyl)-ethyl]-amide] it was 36.8 nM; in that of `Nc1ccc(CNC(=O)[C@H](Cc2ccc(F)c(F)c2)NC(=O)[C@H]2CCCN2)cn1` [Example 72, (R)-Pyrrolidine-2-carboxylic acid [(S)-1-[(6-amino-pyridin-3-ylmethyl)-carbamoyl]-2-(3,4-difluoro-phenyl)-ethyl]-amide], 7.2 nM; in that of `CCC(C)[C@H](C(=O)N[C@@H](Cc1ccc(F)c(F)c1)C(=O)NCc1ccc(N)nc1)N(C)C` (stereo partly drawn) [Example 358, (R)-2-Dimethylamino-3-methyl-pentanoic acid [(S)-1-[(6-amino-pyridin-3-ylmethyl)-carbamoyl]-2-(3,4-difluoro-phenyl)-ethyl]-amide], 10.4 nM.
`COc1ccc2[nH]c(C(=O)N[C@@H](Cc3ccc(F)c(F)c3)C(=O)NCc3ccc(N)nc3)cc2c1` [Example 327, 5-Methoxy-1H-indole-2-carboxylic acid [(S)-1-[(6-amino-pyridin-3-ylmethyl)-carbamoyl]-2-(3,4-difluoro-phenyl)-ethyl]-amide]: the half-inhibitory concentration (IC50) was 17.8 nM.
With `CN1CCC[C@@H]1C(=O)N[C@@H](Cc1cccc(F)c1)C(=O)NCc1ccc(N)nc1` [Example 99, (R)-1-Methyl-pyrrolidine-2-carboxylic acid [(S)-1-[(6-amino-pyridin-3-ylmethyl)-carbamoyl]-2-(3-fluoro-phenyl)-ethyl]-amide], inhibition was half-maximal at 17.1 nM (IC50).
In the case of `Cc1ccc(-c2ccc(C(=O)N[C@@H](Cc3csc4ccccc34)C(=O)NCc3ccc(N)nc3)[nH]2)cc1` [Example 293, 5-p-Tolyl-1H-pyrrole-2-carboxylic acid {(S)-1-[(6-amino-pyridin-3-ylmethyl)-carbamoyl]-2-benzo[b]thiophen-3-yl-ethyl}-amide] it was 36.3 nM.
Compound `CCN(C)[C@@H](C)C(=O)N[C@@H](Cc1ccc(F)cc1)C(=O)NCc1ccc(N)nc1` [Example 367, (S)—N-[(S)-1-[(6-Amino-pyridin-3-ylmethyl)-carbamoyl]-2-(4-fluoro-phenyl)-ethyl]-2-(ethyl-methyl-amino)-propionamide] showed a half-maximal inhibitory concentration (IC50) of 10.8 nM.
The figure for `COc1ccc(C[C@H](NC(=O)c2[nH]c(C)cc2C)C(=O)NCc2ccc(N)nc2)cc1` [Example 254, 3,5-Dimethyl-1H-pyrrole-2-carboxylic acid [(S)-1-[(6-amino-pyridin-3-ylmethyl)-carbamoyl]-2-(4-methoxy-phenyl)-ethyl]-amide] is 37.2 nM; for `CC(C)N(C(C)C)[C@@H](C)C(=O)N[C@@H](Cc1ccc(F)cc1)C(=O)NCc1ccc(N)nc1` [Example 372, (S)—N-[(S)-1-[(6-Amino-pyridin-3-ylmethyl)-carbamoyl]-2-(4-fluoro-phenyl)-ethyl]-2-diisopropylamino-propionamide] it is 34.3 nM.

Usually IC50 stands for the concentration at which inhibition is half-maximal. The low end stands for inhibition by little substance, the high end for a need for much substance.

The values above are taken from patent US20100076015A1, “Aminopyridine Derivatives” (VANTIA LIMITED, priority 2008, published 2010).
